Columns and labels:
[1] = target: T1, Growth hormone secretagogue receptor type 1 (Homo sapiens, UniProt Q92847); assay: Agonist activity at human GHSR1a by FLIPR assay relative to human ghrelin; type: functional
[2] = target: T1, Growth hormone secretagogue receptor type 1; assay: Agonist activity at human GHSR1a by FLIPR assay; type: functional
[3] = Volume of distribution at steady state in Sprague-Dawley rat; type: ADME, organism-based; conditions: in vivo, read-out: Vdss
[4] = Half life in Sprague-Dawley rat; type: ADME, organism-based; conditions: in vivo
[5] = Clearance in Sprague-Dawley rat at 1 mg/kg, iv; type: ADME, organism-based; set-up: dose 1 mg/kg, route intravenous; conditions: in vivo
Rattus norvegicus = assay: Effect on food intake in Sprague-Dawley rat at 3 mg/kg, po after 2 hrs; type: functional
[6] = Oral bioavailability in Sprague-Dawley rat at 3 mg/kg; type: ADME, organism-based; conditions: in vivo
[7] = target: 5-hydroxytryptamine receptor 1B (Homo sapiens, UniProt P28222); assay: Binding affinity to 5HT1B receptor
Sequence of 5-hydroxytryptamine receptor 1B (P28222 whole entry): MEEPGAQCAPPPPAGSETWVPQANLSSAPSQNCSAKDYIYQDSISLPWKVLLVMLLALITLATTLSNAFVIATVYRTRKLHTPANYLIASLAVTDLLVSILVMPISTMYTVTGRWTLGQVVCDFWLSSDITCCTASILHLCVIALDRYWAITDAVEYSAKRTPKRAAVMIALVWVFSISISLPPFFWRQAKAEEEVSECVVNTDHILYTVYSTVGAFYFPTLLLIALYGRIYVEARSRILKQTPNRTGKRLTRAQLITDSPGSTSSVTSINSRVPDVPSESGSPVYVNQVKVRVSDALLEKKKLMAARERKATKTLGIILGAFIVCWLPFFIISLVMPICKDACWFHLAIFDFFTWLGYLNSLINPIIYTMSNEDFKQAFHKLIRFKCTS

T1 sequence (Q92847 whole entry): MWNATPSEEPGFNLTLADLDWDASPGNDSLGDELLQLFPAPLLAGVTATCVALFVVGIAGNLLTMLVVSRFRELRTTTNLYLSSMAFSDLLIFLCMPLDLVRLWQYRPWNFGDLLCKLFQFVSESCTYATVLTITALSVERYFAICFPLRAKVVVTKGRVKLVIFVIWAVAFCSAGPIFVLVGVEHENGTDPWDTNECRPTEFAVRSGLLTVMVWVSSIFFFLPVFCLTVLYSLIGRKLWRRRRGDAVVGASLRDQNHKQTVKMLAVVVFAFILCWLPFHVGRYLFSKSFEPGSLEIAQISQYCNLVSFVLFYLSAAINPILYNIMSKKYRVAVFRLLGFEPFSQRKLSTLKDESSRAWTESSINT

Structure (SMILES) | Intrinsic activity [1] | EC50 [2] | other results
COc1ccc(N2C[C@@H](C)N[C@@H](C)C2)cc1NS(=O)(=O)c1ccc(-c2ccncc2)cc1 | 0.7 | 316 nM | –
C[C@@H]1CN(c2ccc(C(=O)N(C)C)c(NS(=O)(=O)c3ccc(-c4ccccn4)s3)c2)C[C@H](C)N1 | 0.9 | 794 nM | –
COc1ccc(N2C[C@@H](C)N[C@@H](C)C2)cc1NS(=O)(=O)c1cccc(-c2ccccc2)c1 | 1 | 158 nM | –
COc1ccc(N2C[C@@H](C)N[C@@H](C)C2)cc1NS(=O)(=O)c1ccc(Oc2ccccc2)cc1 | 0.9 | 63.1 nM | –
COc1ccc(N2C[C@@H](C)N[C@@H](C)C2)cc1NS(=O)(=O)c1cccc(-c2ccco2)c1 | 1 | 20 nM | –
COc1ccc(N2C[C@@H](C)N[C@@H](C)C2)cc1NS(=O)(=O)c1ccc(Br)cc1 | 0.7 | 126 nM | –
COc1ccc(NS(=O)(=O)c2ccc(-c3ccccn3)s2)cc1N1C[C@@H](C)N[C@@H](C)C1 | 0.9 | 15.8 nM | –
CC(=O)c1ccc(N2C[C@@H](C)N[C@@H](C)C2)cc1NS(=O)(=O)c1ccc(-c2ccccn2)s1 | 0.9 | 39.8 nM | –
COc1ccc(N2C[C@@H](C)N[C@@H](C)C2)cc1NS(=O)(=O)c1ccc(N2CCCC2=O)cc1 | 0.8 | 39.8 nM | –
CCOc1ccc(N2C[C@@H](C)N[C@@H](C)C2)cc1NS(=O)(=O)c1ccc(-c2ccccn2)s1 | 0.8 | 39.8 nM | –
C[C@@H]1CN(c2cc(NS(=O)(=O)c3ccc(-c4ccccn4)s3)ccc2C#N)C[C@H](C)N1 | 0.9 | 631 nM | –
CC(C)Oc1ccc(N2C[C@@H](C)N[C@@H](C)C2)cc1NS(=O)(=O)c1ccc(-c2ccccn2)s1 | 1.1 | 100 nM | –
C[C@@H]1CN(c2ccc(F)c(NS(=O)(=O)c3ccc(-c4ccccn4)s3)c2)C[C@H](C)N1 | 0.8 | 100 nM | –
COc1ccc(N2C[C@@H](C)N[C@@H](C)C2)cc1NS(=O)(=O)c1ccc(-c2cncnc2)cc1 | 0.6 | 316 nM | –
C[C@@H]1CN(c2ccc(Cl)c(NS(=O)(=O)c3ccc(-c4ccccn4)s3)c2)C[C@H](C)N1 | 1 | 39.8 nM | –
C[C@@H]1CN(c2cccc(NS(=O)(=O)c3ccc(-c4ccccn4)s3)c2)C[C@H](C)N1 | 0.8 | 39.8 nM | –
COc1ccc(N2C[C@@H](C)N[C@@H](C)C2)cc1NS(=O)(=O)c1ccc(OCc2ccccc2)cc1 | 0.8 | 100 nM | –

Now from value to compound, other results behind:

Intrinsic activity [1] | EC50 [2] | Structure (SMILES) | other results
1.1 | 10 nM | COc1ccc(N2C[C@@H](C)N[C@@H](C)C2)cc1NS(=O)(=O)c1ccc(-c2ccccn2)s1 | –
0.8 | 15.8 nM | COc1ccc(N2C[C@@H](C)N[C@@H](C)C2)cc1NS(=O)(=O)c1ccc(-n2cccn2)cc1 | –
0.9 | 2 nM | COc1ccc(N2C[C@@H](C)N[C@@H](C)C2)cc1NS(=O)(=O)c1ccc(-c2cccs2)cc1F | –
0.9 | 2.51 nM | COc1ccc(N2C[C@@H](C)N[C@@H](C)C2)cc1NS(=O)(=O)c1ccc(-c2cnco2)s1 | –
0.9 | 0.794 nM | COc1ccc(N2C[C@@H](C)N[C@@H](C)C2)cc1NS(=O)(=O)c1ccc(-c2cccs2)cc1Cl | –
1 | 3.98 nM | COc1ccc(N2C[C@@H](C)N[C@@H](C)C2)cc1NS(=O)(=O)c1ccc(-c2cccs2)cc1 | Vd [3]: 1.6 L/kg; half-life [4]: 1 h; clearance [5]: 26 mL/min/kg; Activity (Rattus norvegicus): 292%; bioavailability [6]: 74%; Ki [7]: > 3160 nM
1 | 6.31 nM | COc1ccc(N2C[C@@H](C)N[C@@H](C)C2)cc1NS(=O)(=O)c1ccc(-c2ccccc2)cc1 | –
1 | 0.501 nM | COc1ccc(N2C[C@@H](C)N[C@@H](C)C2)cc1NS(=O)(=O)c1ccc(-c2cc(Cl)ccc2F)cc1 | –
1.2 | 0.398 nM | COc1ccc(F)c(-c2ccc(S(=O)(=O)Nc3cc(N4C[C@@H](C)N[C@@H](C)C4)ccc3OC)cc2)c1 | –
1 | 0.794 nM | COc1ccc(N2C[C@@H](C)N[C@@H](C)C2)cc1NS(=O)(=O)c1ccc(-c2ccc(C)o2)cc1 | Vd [3]: 3.3 L/kg; half-life [4]: 1.9 h; clearance [5]: 24 mL/min/kg; Activity (Rattus norvegicus): 544%; bioavailability [6]: 75%; Ki [7]: > 3160 nM
0.9 | 3.98 nM | COc1ccc(N2C[C@@H](C)N[C@@H](C)C2)cc1NS(=O)(=O)c1ccc(-c2ccco2)cc1 | –
1 | 2 nM | COc1cccc(-c2ccc(S(=O)(=O)Nc3cc(N4C[C@@H](C)N[C@@H](C)C4)ccc3OC)cc2)c1 | –

From ChEMBL document CHEMBL1144045, “Potent achiral agonists of the growth hormone secretagogue (ghrelin) receptor. Part 2: Lead optimisation” (Bioorg Med Chem Lett, 2008)
